# Experimental data from US11377442B2, “Small molecule agonists and antagonists of NR2F6 activity” (ZANDER THERAPEUTICS, INC., priority 2016, dated 2022).
# Where two headings read alike, the source gives them in different places.
# What was measured:
# Type in all cases: cell-based
# HEK293 pGL4 = assay: Firefly_pGL signal, cmpd/DMSO (pGL4 control cells); details: Homo sapiens
# NR2F6 = target: T1, NR2F6 (Homo sapiens, UniProt P10588); assay: NR2F6 agonist screening, Firefly signal cmpd/DMSO
# T1 construct: expressed in transfected cells; also transient transfection
# T1 sequence (P10588 1-404): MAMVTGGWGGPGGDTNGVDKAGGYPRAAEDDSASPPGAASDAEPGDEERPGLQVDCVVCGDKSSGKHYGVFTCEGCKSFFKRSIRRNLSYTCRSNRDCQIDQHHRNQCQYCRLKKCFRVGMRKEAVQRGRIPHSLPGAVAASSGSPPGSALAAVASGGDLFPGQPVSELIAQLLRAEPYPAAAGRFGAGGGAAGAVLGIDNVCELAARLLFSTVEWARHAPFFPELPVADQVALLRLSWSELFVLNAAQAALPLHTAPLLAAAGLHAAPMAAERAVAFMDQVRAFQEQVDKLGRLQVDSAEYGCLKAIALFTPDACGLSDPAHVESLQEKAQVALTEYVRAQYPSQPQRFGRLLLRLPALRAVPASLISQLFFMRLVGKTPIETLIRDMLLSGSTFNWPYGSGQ
# Renilla = Renilla signal in NR2F6 agonist screening, cmpd/DMSO; details: Renilla, F4
# NR2F6 LBD = target: T2, NR2F6 LBD (Homo sapiens, UniProt P10588); assay: NR2F6 LBD transient transfection; details: LBD
# T2 construct: expressed in transfected cells
# T2 sequence (P10588 165-393 limits assumed): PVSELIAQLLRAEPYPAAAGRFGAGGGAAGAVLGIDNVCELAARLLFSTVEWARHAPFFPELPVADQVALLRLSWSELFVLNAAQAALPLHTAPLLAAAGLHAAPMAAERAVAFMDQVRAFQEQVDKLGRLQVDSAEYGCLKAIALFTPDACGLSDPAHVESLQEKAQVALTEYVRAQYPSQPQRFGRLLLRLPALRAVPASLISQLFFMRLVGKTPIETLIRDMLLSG
# Description: FIGS. 27A and 27B show NR2F6 and LBD transient transfection, respectively, for Compound D28. Higher concentrations were excluded due to lower signal (tox effect). FIGS. 27C and 27D show NR2F6 and LBD transient transfection at different concentrations for different compounds. 9 compounds were tested on LBD transfected cells (40, 10, 2 and 0.5 μM, 4 replicates). FIGS. 27E and 27F show toxicity of Compound D28. 9 compounds were tested for cytotoxicity on LBD transfected cells (40, 10, 2 and 0.5 μM, 4 replicates). […] Cytotoxicity normalized to DMSO is shown in FIG. 27F (0% cytotoxicity corresponds to DMSO signal, 100%—zero signal).
# FIGS. 34A and 34B show NR2F6 LBD transient transfection for Compound E21. 9 compounds were tested on LBD transfected cells (40, 10, 2 and 0.5 μM, 4 replicates). FIGS. 34C and 34D show NR2F6 and LBD transient transfection at different concentrations for different compounds. 9 compounds were tested on LBD transfected cells (40, 10, 2 and 0.5 μM, 4 replicates). […] Cytotoxicity normalized to DMSO is shown in FIG. 34D (0% cytotoxicity corresponds to DMSO signal, 100%—zero signal). All compounds were tested at 5, 10, 25 and 50 uM in duplicates. Dog PBMC (1×10^6 cells/mL) were activated by 10 ng/mL PMA+500 ng/mL ionomycin. Data were normalized to controls with (100%)/without (0%) PMA+ionomycin activation.
# FIGS. 39A and 39B show NR2F6 LBD transient transfection for Compound F1. 9 compounds were tested on LBD transfected cells (40, 10, 2 and 0.5 μM, 4 replicates). FIGS. 39C and 39D show toxicity of NR2F6 LBD transient transfection. 9 compounds were tested for cytotoxicity on LBD transfected cells (40, 10, 2 and 0.5 μM, 4 replicates). Tox effect causes lower signal compared to DMSO. Cytotoxicity normalized to DMSO is shown in FIG. 39D (0% cytotoxicity corresponds to DMSO signal, 100%—zero signal).
# [1] = HEK293, 0.5 uM, pGL4, read-out: Firefly pGL4, cmpd/DMSO (mean)
# [2] = HEK293, 2 uM, pGL4, read-out: Firefly pGL4, cmpd/DMSO (mean)
# [3] = HEK293, 10 uM, pGL4, read-out: Firefly pGL4, cmpd/DMSO (mean)
# [4] = HEK293, 40 uM, pGL4, read-out: Firefly pGL4, cmpd/DMSO (mean)
# [5] = HEK293, pGL4, 1% FBS, 0.5 uM, read-out: Firefly, pGL4, 1% FBS, cmpd/DMSO (mean)
# [6] = HEK293, pGL4, 1% FBS, 2 uM, read-out: Firefly, pGL4, 1% FBS, cmpd/DMSO (mean)
# [7] = HEK293, pGL4, 1% FBS, 10 uM, read-out: Firefly, pGL4, 1% FBS, cmpd/DMSO (mean)
# [8] = HEK293, pGL4, 1% FBS, 40 uM, read-out: Firefly, pGL4, 1% FBS, cmpd/DMSO (mean)
# [9] = HEK293, pGL4, 10% FBS, 0.5 uM, read-out: Firefly, pGL4, 10% FBS, cmpd/DMSO (mean)
# [10] = HEK293, pGL4, 10% FBS, 2 uM, read-out: Firefly, pGL4, 10% FBS, cmpd/DMSO (mean)
# [11] = HEK293, pGL4, 10% FBS, 10 uM, read-out: Firefly, pGL4, 10% FBS, cmpd/DMSO (mean)
# [12] = HEK293, pGL4, 10% FBS, 40 uM, read-out: Firefly, pGL4, 10% FBS, cmpd/DMSO (mean)
# [13] = read-out: Renilla, F4, cmpd/DMSO (mean)
# [14] = 1% FBS, read-out: Renilla, F4, 1% FBS, cmpd/DMSO (mean)
# [15] = 10% FBS, read-out: Renilla, F4, 10% FBS, cmpd/DMSO (mean)
structure (smiles),measurement,setting,value
COCCN[C@H]1CS(=O)(=O)C[C@@H]1S(=O)(=O)c1cccs1 [Compound D107],fold induction at 0.5 µM,HEK293 pGL4; [1],1.2
same,fold induction at 2 µM,HEK293 pGL4; [2],1.5
same,fold induction at 10 µM,HEK293 pGL4; [3],2
same,fold induction at 40 µM,HEK293 pGL4; [4],2.5
same,fold induction at 0.5 µM,HEK293 pGL4; [5],1.3
same,fold induction at 2 µM,HEK293 pGL4; [6],1.4
same,fold induction at 10 µM,HEK293 pGL4; [7],1.8
same,fold induction at 40 µM,HEK293 pGL4; [8],1.4
same,fold induction at 0.5 µM,HEK293 pGL4; [9],1.1
same,fold induction at 2 µM,HEK293 pGL4; [10],1.3
same,fold induction at 10 µM,HEK293 pGL4; [11],1.7
same,fold induction at 40 µM,HEK293 pGL4; [12],2.3
same,"Firefly F4, cmpd/DMSO (mean)",NR2F6; 0.5 uM,1.3
same,"Firefly F4, cmpd/DMSO (mean)",NR2F6; 2 uM,1.6
same,"Firefly F4, cmpd/DMSO (mean)",NR2F6; 10 uM,2.2
same,"Firefly F4, cmpd/DMSO (mean)",NR2F6; 40 uM,4.0
same,"F4, Firefly/Renilla for S/B(F4) > 3","NR2F6; 1% FBS, 40 uM",2.2
same,"Firefly, F4/pGL4 for S/B(F4) > 3","NR2F6; 1% FBS, 40 uM",2.6
same,"F4, Firefly/Renilla for S/B(F4) > 3","NR2F6; 10% FBS, 40 uM",2.9
same,"Firefly, F4/pGL4 for S/B(F4) > 3","NR2F6; 10% FBS, 40 uM",2.7
same,"Firefly, F4, 1% FBS, cmpd/DMSO (mean)","NR2F6; 1% FBS, 0.5 uM",1.5
same,"Firefly, F4, 1% FBS, cmpd/DMSO (mean)","NR2F6; 1% FBS, 2 uM",0.8
same,"Firefly, F4, 1% FBS, cmpd/DMSO (mean)","NR2F6; 1% FBS, 10 uM",1.4
same,"Firefly, F4, 1% FBS, cmpd/DMSO (mean)","NR2F6; 1% FBS, 40 uM",3.8
same,"Firefly, F4, 10% FBS, cmpd/DMSO (mean)","NR2F6; 10% FBS, 0.5 uM",0.8
same,"Firefly, F4, 10% FBS, cmpd/DMSO (mean)","NR2F6; 10% FBS, 2 uM",1.4
same,"Firefly, F4, 10% FBS, cmpd/DMSO (mean)","NR2F6; 10% FBS, 10 uM",1.5
same,"Firefly, F4, 10% FBS, cmpd/DMSO (mean)","NR2F6; 10% FBS, 40 uM",6.1
same,fold induction at 0.5 µM,Renilla; [13],1.1
same,fold induction at 2 µM,Renilla; [13],1
same,fold induction at 10 µM,Renilla; [13],1.2
same,fold induction at 40 µM,Renilla; [13],1.5
same,fold induction at 0.5 µM,Renilla; [14],0.9
same,fold induction at 2 µM,Renilla; [14],1.2
same,fold induction at 10 µM,Renilla; [14],1.3
same,fold induction at 40 µM,Renilla; [14],1.8
same,fold induction at 0.5 µM,Renilla; [15],1
same,fold induction at 2 µM,Renilla; [15],1
same,fold induction at 10 µM,Renilla; [15],1.3
same,fold induction at 40 µM,Renilla; [15],2.1
same,"Firefly LBD, cmpd/DMSO (mean)",NR2F6 LBD; 0.5 uM,0.9
same,"Firefly LBD, cmpd/DMSO (mean)",NR2F6 LBD; 2 uM,1.1
same,"Firefly LBD, cmpd/DMSO (mean)",NR2F6 LBD; 10 uM,2.2
same,"Firefly LBD, cmpd/DMSO (mean)",NR2F6 LBD; 40 uM,2.2
O=S1(=O)C[C@H](NCc2ccncc2)[C@@H](S(=O)(=O)c2cccs2)C1 [Compound D108],fold induction at 0.5 µM,HEK293 pGL4; [1],0.9
same,fold induction at 2 µM,HEK293 pGL4; [2],1
same,fold induction at 10 µM,HEK293 pGL4; [3],1.2
same,fold induction at 40 µM,HEK293 pGL4; [4],1.5
same,fold induction at 0.5 µM,HEK293 pGL4; [5],1.5
same,fold induction at 2 µM,HEK293 pGL4; [6],1.2
same,fold induction at 10 µM,HEK293 pGL4; [7],1.2
same,fold induction at 40 µM,HEK293 pGL4; [8],1.1
same,fold induction at 0.5 µM,HEK293 pGL4; [9],1.1
same,fold induction at 2 µM,HEK293 pGL4; [10],1.1
same,fold induction at 10 µM,HEK293 pGL4; [11],1.1
same,fold induction at 40 µM,HEK293 pGL4; [12],1.4
same,"Firefly F4, cmpd/DMSO (mean)",NR2F6; 0.5 uM,1.0
same,"Firefly F4, cmpd/DMSO (mean)",NR2F6; 2 uM,1.3
same,"Firefly F4, cmpd/DMSO (mean)",NR2F6; 10 uM,1.3
same,"Firefly F4, cmpd/DMSO (mean)",NR2F6; 40 uM,1.9
same,"Firefly, F4, 1% FBS, cmpd/DMSO (mean)","NR2F6; 1% FBS, 0.5 uM",1.2
same,"Firefly, F4, 1% FBS, cmpd/DMSO (mean)","NR2F6; 1% FBS, 2 uM",1.1
same,"Firefly, F4, 1% FBS, cmpd/DMSO (mean)","NR2F6; 1% FBS, 10 uM",1.1
same,"Firefly, F4, 1% FBS, cmpd/DMSO (mean)","NR2F6; 1% FBS, 40 uM",1.8
same,"Firefly, F4, 10% FBS, cmpd/DMSO (mean)","NR2F6; 10% FBS, 0.5 uM",1.2
same,"Firefly, F4, 10% FBS, cmpd/DMSO (mean)","NR2F6; 10% FBS, 2 uM",1.0
same,"Firefly, F4, 10% FBS, cmpd/DMSO (mean)","NR2F6; 10% FBS, 10 uM",1.1
same,"Firefly, F4, 10% FBS, cmpd/DMSO (mean)","NR2F6; 10% FBS, 40 uM",2.2
same,fold induction at 0.5 µM,Renilla; [13],1
same,fold induction at 2 µM,Renilla; [13],1
same,fold induction at 10 µM,Renilla; [13],1.1
same,fold induction at 40 µM,Renilla; [13],1.2
same,fold induction at 0.5 µM,Renilla; [14],1
same,fold induction at 2 µM,Renilla; [14],1.2
same,fold induction at 10 µM,Renilla; [14],1.1
same,fold induction at 40 µM,Renilla; [14],1.4
same,fold induction at 0.5 µM,Renilla; [15],1
same,fold induction at 2 µM,Renilla; [15],0.9
same,fold induction at 10 µM,Renilla; [15],1
same,fold induction at 40 µM,Renilla; [15],1.4
same,"Firefly LBD, cmpd/DMSO (mean)",NR2F6 LBD; 0.5 uM,1.0
same,"Firefly LBD, cmpd/DMSO (mean)",NR2F6 LBD; 2 uM,1.4
same,"Firefly LBD, cmpd/DMSO (mean)",NR2F6 LBD; 10 uM,1.3
same,"Firefly LBD, cmpd/DMSO (mean)",NR2F6 LBD; 40 uM,2.1
